Literature values as cited in US12097177B2, “Therapeutic method for cat with chronic kidney disease” (Toray Industries, Inc., priority 2021, dated 2024).
Structures can show the parent of a compound that is named as a salt. Where two headings read alike, the source gives them in different places.

Experiments:
[1] = humans; cited from earlier work
[2] = rats; cited from earlier work
feline CKD [3] = conditions: in vivo; cited from earlier work
feline CKD [4] = conditions: in vivo; cited from earlier work; remark: listed apart in the source
feline CKD [5] = conditions: in vivo; cited from earlier work; remark: listed apart in the source

## CC#CC[C@H](C)[C@H](O)/C=C/[C@@H]1[C@H]2c3cccc(CCCC(=O)[O-])c3O[C@H]2C[C@H]1O.[Na+] (single isomer, unassigned) [BPS-314d]
[1]
  AUC of plasma BPS-314d when BPS is administered (fraction): ¼
  Cmax of plasma BPS-314d when BPS is administered (fraction): ¼
[2]
  AUC of plasma BPS-314d when BPS is administered (fraction): ¼
  Cmax of plasma BPS-314d when BPS is administered (fraction): ¼

## CN1N=C2CCN(C(=O)[C@@H](COCc3ccccc3)NC(=O)C(C)(C)N)C[C@@]2(Cc2ccccc2)C1=O [capromorelin]
Feline CKD [3]
  body weight loss: inhibit body weight loss
  overall survival rate or observed survival rate: no improvement in the overall survival rate or the observed survival rate of feline CKD has been demonstrated

## CCOC(=O)[C@H](CCc1ccccc1)N[C@H]1CCc2ccccc2N(CC(=O)O)C1=O [Benazepril hydrochloride, benazepril hydrochloride]
Feline CKD [4]
  progression of feline CKD stage: has not been found to inhibit progression of feline CKD stage
  proteinuria: lower the severity of proteinuria
  serum creatinine: inhibit elevation in serum creatinine

## CCCc1nc2c(C)cc(-c3nc4ccccc4n3C)cc2n1Cc1ccc(-c2ccccc2C(=O)O)cc1 [telmisartan]
Feline CKD [5]
  proteinuria: improve proteinuria of feline CKD
